Data taken from US6787161B2, “Anti-cancer compounds” (Peplin Biotech Pty. Ltd., priority 1997, dated 2004).

What was measured:
[1] = test system: MM96L melanoma cell line; experiment: MM96L assay of chromatographic fractions (cell inhibition, reversion to dendritic appearance); format: cell-based, human; details: at 1 in 5×10^6 dilution
Procedure: Fractions were dried by vacuum centrifugation, reconstituted in 500 μl PBS, and assayed against MM96L cells and in the metallothionein reporter assay as described above. Fractions 13 to 28 all induced complete reversion of MM96L cells to a dendritic appearance, but cell death was not observed. The effect was much more striking in the reporter assay, in which activity was still observed at a dilution of 1/10,000 (i.e. at a final concentration in the culture of 1/100,000).
Fractions 14 and 15 from the HPLC subfractionation described in Example 7 and FIG. 3 were further purified by repeated chromatography, selecting the dominant symmetrical peak with constant diode array spectra (e.g. fractions 14 and 15; results for fraction 14 are shown in FIGS. 4 and 5). Activity of the purified fractions in causing reversion of MM96L to the dendritic appearance was confirmed by cell assay.
(a) The ether-soluble fraction, prepared as in Example 7, was reconstituted in ethylene glycol dimethyl ether (DME) and chromatographed on 20×20 cm silica gel plates, using chloroform:ethyl acetate (82:18) as the developing solvent (FIG. 7). The plate was viewed on a UV light box and the UV positive bands were identified, excised from the gel, eluted with DME, and tested for inhibitory activity and morphology reversal against MM96L melanoma cell line. […]

[2] = test system: MM96L cells; experiment: Effect of betaines on MM96L cell numbers; format: cell-based, human; design: key to cell numbers rating and morphology: +++ = no effect; − = complete cell death; *d = indicates change to dendritic morphology of the cells; details: 4 days
Procedure: Betaines of different types were solubilised in sterile MilliQ™ water to a final concentration of 1 mg/ml, and diluted into 0.1 ml tissue culture medium containing 5000 MM96L cells as described previously. Cells were scored after 4 days incubation.

20-acetyl-ingenol-3-angelate
final concentration active in reversion to complete dendritic morphology [1]: 1 ng/ml

CN1CCC[C@H]1C(=O)O [N-methyl proline, free base, N-methyl proline]
cell numbers rating and morphology ([2]; dilution 1/50 of 1 mg/ml): +++
cell numbers rating and morphology ([2]; dilution 1/500 of 1 mg/ml): +++
cell numbers rating and morphology ([2]; dilution 1/5,000 of 1 mg/ml): +++

C[N+](C)(C)CC(=O)[O-] [glycine betaine]
cell numbers rating and morphology ([2]; dilution 1/50 of 1 mg/ml): +++
cell numbers rating and morphology ([2]; dilution 1/500 of 1 mg/ml): +++
cell numbers rating and morphology ([2]; dilution 1/5,000 of 1 mg/ml): +++

C[N+]1(C)CCC[C@H]1C(=O)[O-] [stachydrine (proline betaine), free base, stachydrine (proline betaine)]
cell numbers rating and morphology ([2]; dilution 1/50 of 1 mg/ml): +++
cell numbers rating and morphology ([2]; dilution 1/500 of 1 mg/ml): +++
cell numbers rating and morphology ([2]; dilution 1/5,000 of 1 mg/ml): +++

CN1CC[C@@H](O)[C@@H]1C(=O)O [t-3-hydroxy N-methyl proline, free base, t-3-hydroxy N-methyl proline]
cell numbers rating and morphology ([2]; dilution 1/50 of 1 mg/ml): +++
cell numbers rating and morphology ([2]; dilution 1/500 of 1 mg/ml): +++
cell numbers rating and morphology ([2]; dilution 1/5,000 of 1 mg/ml): +++

C[N+]1(C)C[C@H](O)C[C@H]1C(=O)[O-] [t-4 hydroxy N,N-dimethyl proline]
final concentration at which cell numbers were depressed or inhibited [2]: 20 µg/mL
cell numbers rating and morphology ([2]; dilution 1/50 of 1 mg/ml): +pd
cell numbers rating and morphology ([2]; dilution 1/500 of 1 mg/ml): +++
cell numbers rating and morphology ([2]; dilution 1/5,000 of 1 mg/ml): +++

CN1C[C@@H](O)C[C@@H]1C(=O)O [t-4-hydroxy N-methyl proline, free base, t-4-hydroxy N-methyl proline]
cell numbers rating and morphology ([2]; dilution 1/50 of 1 mg/ml): +++
cell numbers rating and morphology ([2]; dilution 1/500 of 1 mg/ml): +++
cell numbers rating and morphology ([2]; dilution 1/5,000 of 1 mg/ml): +++

C[N+](C)(C)CCC(=O)O.[Cl-] [β-alanine betaine hydrochloride]
final concentration at which cell numbers were depressed or inhibited [2]: 20 µg/mL
cell numbers rating and morphology ([2]; dilution 1/50 of 1 mg/ml): ++d
cell numbers rating and morphology ([2]; dilution 1/500 of 1 mg/ml): +++
cell numbers rating and morphology ([2]; dilution 1/5,000 of 1 mg/ml): +++
